The source of these data is patent US12060347B2 (BRISTOL-MYERS SQUIBB COMPANY, priority 2016, dated 2024).

The assay deals with T1, human PAR4 (Homo sapiens, UniProt Q96RI0).
T1 construct: expressed in transfected cells; host or cells: HEK293 PAR4 Clone 1.2A (BMS Arctic ID 383940)
T1 sequence (Q96RI0 18-385): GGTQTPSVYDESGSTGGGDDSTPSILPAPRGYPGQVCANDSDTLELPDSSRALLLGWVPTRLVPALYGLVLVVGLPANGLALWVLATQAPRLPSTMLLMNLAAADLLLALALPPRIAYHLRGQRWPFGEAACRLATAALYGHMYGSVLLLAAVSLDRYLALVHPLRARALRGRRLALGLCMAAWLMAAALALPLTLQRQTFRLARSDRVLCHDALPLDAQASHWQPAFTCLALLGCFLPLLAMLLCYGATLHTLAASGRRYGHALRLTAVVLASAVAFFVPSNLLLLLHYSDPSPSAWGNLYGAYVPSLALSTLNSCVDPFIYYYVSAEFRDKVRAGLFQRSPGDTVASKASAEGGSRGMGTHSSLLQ
Put plainly: PAR4 FLIPR assay: antagonism of agonist-peptide-induced calcium mobilization in PAR4-expressing HEK293 cells. It is filed as cell-based. The conditions noted are these: H-Ala-Phe(4-F)-[…]NH2-induced intracellular calcium mobilization, 11-point curves.

Consider `COc1cnc2c(-c3nc4cc(F)c(OC[C@@H](C)OC(=O)Nc5ccc(OCC(F)(F)CO)nc5)cc4s3)cc(C)cc2n1` [Example 574, (R)-1-((5-fluoro-2-(2-methoxy-7-methylquinoxalin-5-yl)benzo[d]thiazol-6-yl)oxy)propan-2-yl (6-(2,2-difluoro-3-hydroxypropoxy)pyridin-3-yl)carbamate], for which the IC50 worked out at 2 nM.

For the compound `COc1cnc2c(-c3nc4cc(F)c(O[C@@H](C)[C@@H](C)OC(=O)Nc5cnc(OCC(C)(C)O)nc5)cc4s3)cc(C)cc2n1` [Example 575, (2R,3S)-3-((5-fluoro-2-(2-methoxy-7-methylquinoxalin-5-yl)benzo[d]thiazol-6-yl)oxy)butan-2-yl (2-(2-hydroxy-2-methylpropoxy)pyrimidin-5-yl)carbamate], the IC50 was 0.6 nM.

With `COc1cnc2c(-c3nc4cc(F)c(OC[C@@H](C)OC(=O)Nc5cnc(OCC(C)(C)O)nc5)cc4s3)cc(C)cc2n1` [Example 576, (R)-1-((5-fluoro-2-(2-methoxy-7-methylquinoxalin-5-yl)benzo[d]thiazol-6-yl)oxy)propan-2-yl (2-(2-hydroxy-2-methylpropoxy)pyrimidin-5-yl)carbamate], the IC50 was 1.2 nM.

Consider `COc1cnc2c(-c3nc4cc(F)c(O[C@@H](C)[C@@H](C)OC(=O)Nc5cnc(CC(C)(C)O)nc5)cc4s3)cc(C)cc2n1` [Example 577, (2R,3S)-3-((5-fluoro-2-(2-methoxy-7-methylquinoxalin-5-yl)benzo[d]thiazol-6-yl)oxy)butan-2-yl (2-(2-hydroxy-2-methylpropyl)pyrimidin-5-yl)carbamate], for which the IC50 was 1 nM.

In the case of `COc1cnc2c(-c3nc4cc(F)c(O[C@@H](C)[C@@H](C)OC(=O)Nc5cnc(OC[C@@H](C)O)nc5)cc4s3)cc(C)cc2n1` [Example 578, (2R,3S)-3-((5-fluoro-2-(2-methoxy-7-methylquinoxalin-5-yl)benzo[d]thiazol-6-yl)oxy)butan-2-yl (2-((R)-2-hydroxypropoxy)pyrimidin-5-yl)carbamate], the IC50 was found to be 5.8 nM.

For the compound `COc1cnc2c(-c3nc4cc(F)c(O[C@@H](C)[C@@H](C)OC(=O)Nc5cnc(CCO)nc5)cc4s3)cc(Cl)cc2c1` [Example 579, (2R,3S)-3-((2-(6-chloro-3-methoxyquinolin-8-yl)-5-fluorobenzo[d]thiazol-6-yl)oxy)butan-2-yl (2-(2-hydroxyethyl)pyrimidin-5-yl)carbamate], the half-inhibitory concentration (IC50) was determined as 3.3 nM.

Regarding `CCOc1cnc2c(-c3nc4cc(F)c(O[C@@H](C)[C@@H](C)OC(=O)Nc5cnc(OC[C@@H](C)O)nc5)cc4s3)cc(C)cc2n1` [Example 580, (2R,3S)-3-((2-(2-ethoxy-7-methylquinoxalin-5-yl)-5-fluorobenzo[d]thiazol-6-yl)oxy)butan-2-yl (2-((R)-2-hydroxypropoxy)pyrimidin-5-yl)carbamate], the 50% inhibitory concentration (IC50) is 1.1 nM.

As for `COc1cnc2c(-c3nc4cc(F)c(O[C@@H](C)[C@@H](C)OC(=O)Nc5cnc(OC[C@H](C)O)nc5)cc4s3)cc(C)cc2n1` [Example 581, (2R,3S)-3-((5-fluoro-2-(2-methoxy-7-methylquinoxalin-5-yl)benzo[d]thiazol-6-yl)oxy)butan-2-yl (2-((S)-2-hydroxypropoxy)pyrimidin-5-yl)carbamate], the IC50 is 4.1 nM.

As for `CCOc1cnc2c(-c3nc4cc(F)c(O[C@@H](C)[C@@H](C)OC(=O)Nc5cnc(OC[C@H](C)O)nc5)cc4s3)cc(C)cc2n1` [Example 582, (2R,3S)-3-((2-(2-ethoxy-7-methylquinoxalin-5-yl)-5-fluorobenzo[d]thiazol-6-yl)oxy)butan-2-yl (2-((S)-2-hydroxypropoxy)pyrimidin-5-yl)carbamate], the IC50 was 5.3 nM.

Take `COc1cnc2c(-c3nc4c(Cl)c(F)c(OC[C@@H](C)OC(=O)Nc5cnc(C)nc5)cc4s3)cc(C)cc2n1` [Example 589, (R)-1-((4-chloro-5-fluoro-2-(2-methoxy-7-methylquinoxalin-5-yl)benzo[d]thiazol-6-yl)oxy)propan-2-yl (2-methylpyrimidin-5-yl)carbamate]: the IC50 is 0.8 nM.

`COc1cnc2c(-c3nc4c(Cl)c(F)c(OC[C@@H](C)OC(=O)Nc5cccnc5C)cc4s3)cc(C)cc2n1` [Example 590, (R)-1-((4-chloro-5-fluoro-2-(2-methoxy-7-methylquinoxalin-5-yl)benzo[d]thiazol-6-yl)oxy)propan-2-yl (2-methylpyridin-3-yl)carbamate]: the IC50 came to 25 nM.

Regarding `COc1cnc2c(-c3nc4c(Cl)c(F)c(OC[C@@H](C)OC(=O)Nc5cncnc5)cc4s3)cc(C)cc2n1` [Example 591, (R)-1-((4-chloro-5-fluoro-2-(2-methoxy-7-methylquinoxalin-5-yl)benzo[d]thiazol-6-yl)oxy)propan-2-yl pyrimidin-5-ylcarbamate], the IC50 is 7 nM.

As to `COc1cnc2c(-c3nc4cc(F)c(OC[C@@H](C)OC(=O)Nc5ccc(C)nc5)cc4s3)cc(C)cc2n1` [Example 592, (R)-1-((5-fluoro-2-(2-methoxy-7-methylquinoxalin-5-yl)benzo[d]thiazol-6-yl)oxy)propan-2-yl (6-methylpyridin-3-yl)carbamate], the IC50 came out at 0.7 nM.

As to `COc1cnc2c(-c3nc4c(Cl)c(F)c(OC[C@@H](C)OC(=O)OCc5ccc(N)cn5)cc4s3)cc(C)cc2n1` [Example 596, (R)-(5-aminopyridin-2-yl)methyl (1-((4-chloro-5-fluoro-2-(2-methoxy-7-methylquinoxalin-5-yl)benzo[d]thiazol-6-yl)oxy)propan-2-yl) carbonate], the IC50 is 130 nM.

Take `COc1cnc2c(-c3nc4cc(F)c(OC[C@@H](C)OC(=O)Nc5cnc(N(C)C)nc5)cc4s3)cc(C)cc2n1` [Example 597, (R)-1-((5-fluoro-2-(2-methoxy-7-methylquinoxalin-5-yl)benzo[d]thiazol-6-yl)oxy)propan-2-yl (2-(dimethylamino)pyrimidin-5-yl)carbamate]: the IC50 amounted to 15 nM.

`COc1cnc2c(-c3nc4cc(F)c(O[C@@H](C)[C@@H](C)OC(=O)Nc5cnc(N(C)C)nc5)cc4s3)cc(C)cc2n1` [Example 598, (2R,3S)-3-((5-fluoro-2-(2-methoxy-7-methylquinoxalin-5-yl)benzo[d]thiazol-6-yl)oxy)butan-2-yl (2-(dimethylamino)pyrimidin-5-yl)carbamate]: the IC50 stood at 3.7 nM.

As to `COc1cnc2c(-c3nc4cc(F)c(O[C@@H](C)[C@@H](C)OC(=O)Nc5ccc(N(C)C)nc5)cc4s3)cc(C)cc2n1` [Example 599, (2R,3S)-3-((5-fluoro-2-(2-methoxy-7-methylquinoxalin-5-yl)benzo[d]thiazol-6-yl)oxy)butan-2-yl (6-(dimethylamino)pyridin-3-yl)carbamate], the IC50 was 5.6 nM.

`COc1cnc2c(-c3nc4cc(F)c(O[C@@H](C)[C@@H](C)OC(=O)Nc5ccc(N6CCOC6=O)nc5)cc4s3)cc(C)cc2n1` [Example 600, (2R,3S)-3-((5-fluoro-2-(2-methoxy-7-methylquinoxalin-5-yl)benzo[d]thiazol-6-yl)oxy)butan-2-yl (6-(2-oxooxazolidin-3-yl)pyridin-3-yl)carbamate]: the half-inhibitory concentration (IC50) worked out at 2.4 nM.

For `COc1cnc2c(-c3nc4cc(F)c(O[C@@H](C)[C@@H](C)OC(=O)Nc5ccc(NC(C)=O)nc5)cc4s3)cc(C)cc2n1` [Example 601, (2R,3S)-3-((5-fluoro-2-(2-methoxy-7-methylquinoxalin-5-yl)benzo[d]thiazol-6-yl)oxy)butan-2-yl (6-acetamidopyridin-3-yl)carbamate], the concentration for half-maximal inhibition (IC50) is 3.5 nM.
